Experimental data published in the RepoRT retention time repository.

Assay: RP, Thermo Scientific Hypersil GOLD, 1.9 µm, 40 °C, 0.4 mL/min; A: water + 0.1% formic acid, pH 3; B: acetonitrile + 0.1% formic acid, pH 3; gradient (min/%B) 0/0 1/0 11/100 13/100 14/0 16/0
Details: stereoisomer not certain

Row | LC retention time [min] | SMILES
1 | 0.64 | C[N+](C)(C)[O-] [trimethylamine N-oxide]
2 | 0.65 | Cc1ncc(C[n+]2csc(CCOP(=O)([O-])OP(=O)(O)O)c2C)c(N)n1 [THIAMINE PYROPHOSPHATE]
3 | 6.53 | NC(=O)CCCCC1CCSS1 (centres undefined) [LIPOAMIDE]
4 | 0.82 | NC(CCOC(=O)CCC(=O)O)C(=O)O (centres undefined) [O-SUCCINYL-HOMOSERINE]
5 | 1.26 | Nc1nc2c(ncn2C2OC(CO)C(O)C2O)c(=O)[nH]1 (centres undefined) [GUANOSINE]
6 | 3.31 | Nc1ccccc1C(=O)CC(N)C(=O)O (centres undefined) [KYNURENINE]
7 | 13.9 | C=C1CCC(O)CC1=CC=C1CCCC2(C)C1CCC2C(C)C=CC(C)C(C)C (centres undefined) [VITAMIN D2]
8 | 5.83 | CC(=O)NC(Cc1c[nH]c2ccccc12)C(=O)O (centres undefined) [N-ACETYLTRYPTOPHAN]
9 | 0.82 | O=c1ccn(C2CC(O)C(COP(=O)(O)O)O2)c(=O)[nH]1 (centres undefined) [DEOXYURIDINE-MONOPHOSPHATE]
10 | 0.82 | Nc1ncnc2c1ncn2C1OC(CSCCC([NH3+])C(=O)[O-])C(O)C1O (centres undefined) [S-ADENOSYLHOMOCYSTEINE]
11 | 4.42 | Cn1c(=O)c2[nH]cnc2n(C)c1=O [THEOPHYLLINE]
12 | 0.88 | Nc1c(O)cccc1C(=O)CC(N)C(=O)O (centres undefined) [HYDROXYKYNURENINE]
13 | 6.42 | CC(=O)C1C(=O)C=C(C)OC1=O (centres undefined) [Dehydroacetic acid]
14 | 9.45 | CCCCCCCCCCCCCCCC(O)C(N)CO (centres undefined) [SPHINGANINE]
15 | 2.11 | CCOC(N)=O [Urethane]
16 | 11.2 | CCCCCCCCCCCCCC(=O)OCC(O)CO (centres undefined) [GLYCEROL-MYRISTATE]
17 | 0.67 | OCC1OC(OCC2OC(OCC3OC(OC4(CO)OC(CO)C(O)C4O)C(O)C(O)C3O)C(O)C(O)C2O)C(O)C(O)C1O (centres undefined) [STACHYOSE]
18 | 2.37 | O=C(O)CC(C(=O)O)C(O)C(=O)O (centres undefined) [ISOCITRATE]
19 | 10.3 | O=CCc1ccccc1 [PHENYLACETALDEHYDE]
20 | 14.6 | CCCCCCCCCCCCCCCCCCCCCCC(=O)[O-] [TRICOSANOATE]
21 | 0.64 | C[N+](C)(C)CCOP(=O)(O)O [PHOSPHORYLCHOLINE]
22 | 4.3 | O=C(O)c1ccc[nH]1 [PYRROLE-2-CARBOXYLATE]
23 | 5.26 | CC(C)=CCNc1ncnc2nc[nH]c12 [N6-(DELTA2-ISOPENTENYL)-ADENINE]

Row | LC retention time [min] | SMILES
24 | 6.74 | CCCCCCCC(=O)OC(CC(=O)[O-])C[N+](C)(C)C [Octanoyl-L-carnitine]
25 | 0.62 | CNCC(=O)O [SARCOSINE]
26 | 0.63 | Cc1ncc(C[n+]2csc(CCOP(=O)(O)O)c2C)c(N)n1 [THIAMINE MONOPHOSPHATE]
27 | 0.68 | NC(CSCC(=O)O)C(=O)O (centres undefined) [S-CARBOXYMETHYLCYSTEINE]
28 | 0.62 | NC(=O)CC[C@H](N)C(=O)O [L-Glutamine]
29 | 10.5 | CC(CCC(=O)O)C1CCC2C3CCC4CC(O)CCC4(C)C3CCC12C (centres undefined) [LITHOCHOLATE]
30 | 5.61 | CCN(CC)CCCC(C)Nc1c2ccc(Cl)cc2nc2ccc(OC)cc12 (centres undefined) [quinacrine]
31 | 4.1 | Nc1nc2c(ncn2C2OC(COP(=O)(O)OP(=O)(O)OC3OC(CO)C(O)C(O)C3O)C(O)C2O)c(=O)[nH]1 (centres undefined) [GUANOSINE DIPHOSPHATE MANNOSE]
32 | 6 | O=C(O)C(=O)Cc1c[nH]c2ccccc12 [INDOLE-3-PYRUVATE]
33 | 0.66 | CNC(CCC(=O)O)C(=O)O (centres undefined) [N-METHYLGLUTAMATE]
34 | 0.72 | NC(CCSSCCC(N)C(=O)O)C(=O)O (centres undefined) [HOMOCYSTINE]
35 | 4.56 | CC(=O)N[C@@H](Cc1ccc(O)cc1)C(=O)O [N-Acetyl-L-tyrosine]
36 | 0.82 | O=C1CCC(C(=O)O)N1 (centres undefined) [OXOPROLINE]
37 | 7.15 | O=C(O)CCCCCCCCCC(=O)O [undecanedioic acid]
38 | 5.5 | O=C(O)CNC(=O)c1ccccc1O [o-Hydroxyhippuric acid]
39 | 0.82 | Cc1ncc(CO)c(CO)c1O [PYRIDOXINE]
40 | 0.72 | NC(CCS)C(=O)O (centres undefined) [HOMOCYSTEINE]
41 | 4.8 | CSc1ncnc2nc[nH]c12 [THIOPURINE S-METHYLETHER]
42 | 0.71 | O=C([O-])C(O)C(O)C(=O)[O-] (stereo not drawn) [MESO-TARTRATE]
43 | 1.24 | O=c1ccn(C2CC(O)C(CO)O2)c(=O)[nH]1 (centres undefined) [DEOXYURIDINE]
44 | 4.28 | CSCC[C@H](NC=O)C(=O)O [N-FORMYL-L-METHIONINE]
45 | 5.13 | COc1cc(CC(=O)O)ccc1O [HOMOVANILLATE]

The remaining lines, values behind:

Row | SMILES | LC retention time [min]
46 | NCCc1ccc(O)cc1 [TYRAMINE] | 1.24
47 | CC(CCC(=O)O)C(=O)O (centres undefined) [2-METHYLGLUTARATE] | 4.4
48 | NC(Cc1c[nH]c2ccc(O)cc12)C(=O)O (centres undefined) [5-HYDROXYTRYPTOPHAN] | 1.99
49 | NC(CCSCC(N)C(=O)O)C(=O)O (centres undefined) [CYSTATHIONINE] | 0.61
50 | CC(=O)OCC(=O)C1CCC2C3CCC4=CC(=O)CCC4(C)C3CCC12C (centres undefined) [DEOXYCORTICOSTERONE ACETATE] | 9.25
51 | CCCCCCCCCCCCCCCCCCCC(=O)O [ARACHIDATE] | 13.5
52 | O=Cc1cccc(O)c1 [3-HYDROXYBENZALDEHYDE] | 5.4
53 | CS(=N)(=O)CCC(N)C(=O)O (centres undefined) [METHIONINE SULFOXIMINE] | 0.62
54 | CC(O)(CC(=O)O)CC(=O)O [3-HYDROXYMETHYLGLUTARATE] | 1.48
55 | O=C([O-])CCc1ccccc1O [3-(2-HYDROXYPHENYL)PROPANOATE] | 5.92
56 | O=CC(O)C1OC(=O)C(O)C1O [D-GLUCURONOLACTONE] | 0.71
57 | Nc1ncnc2c1ncn2C1CC(O)C(COP(=O)(O)O)O1 (centres undefined) [DEOXYADENOSINE MONOPHOSPHATE] | 0.84
58 | CCCCCCCCCC(=O)OCC(COP(=O)([O-])OCC[N+](C)(C)C)OC(=O)CCCCCCCCC (centres undefined) [DIDECANOYL-GLYCEROPHOSPHOCHOLINE] | 11.1
59 | CC(=O)C1(O)CCC2C3CC=C4CC(O)CCC4(C)C3CCC21C (centres undefined) [17a-Hydroxypregnenolone] | 0.67
60 | Nc1ccnc(=O)[nH]1 [CYTOSINE] | 0.65
61 | CCCCCCCCCCCCCCC=COCC(O)COP(=O)([O-])OCC[N+](C)(C)C (centres undefined) [C16_PlasmLPC] | 10.5
62 | O=C(O)Cc1cnc[nH]1 [4-IMIDAZOLEACETATE] | 0.67
63 | NC(CCCC(=O)O)C(=O)O (centres undefined) [AMINOADIPATE] | 0.67
64 | CC(C)CC(O)C(=O)O (centres undefined) [2-Hydroxyisocaproic acid] | 6.31
65 | O=C(O)Cc1ccc(O)cc1 [4-Hydroxyphenylacetic acid] | 4.88
66 | C/C(=C\C(=O)O)CC(=O)O [(E)-3-Methylglutaconic acid] | 4.1
67 | CC(CCC(=O)O)CC(=O)O (centres undefined) [3-Methyladipic acid] | 5.01
68 | C=CC1=C(C)C(=Cc2[nH]c(Cc3[nH]c(C=C4NC(=O)C(C)=C4C=C)c(C)c3CCC(=O)O)c(CCC(=O)O)c2C)NC1=O [BILIRUBIN] | 12.6
69 | O=c1cccc(O)[nH]1 [2-6-DIHYDROXYPYRIDINE] | 1.09
70 | CC(=O)C1(O)CCC2C3CCC4=CC(=O)CCC4(C)C3CCC21C (centres undefined) [17a-Hydroxyprogesterone] | 8.44

Row | SMILES | LC retention time [min]
71 | O=C(O)Cc1ccc(O)c(O)c1 [3-4-DIHYDROXYPHENYLACETATE] | 4.32
72 | O=C(O)c1cc(O)cc(O)c1 [3-5-Dihydroxybenzoic acid] | 3.57
73 | CC12CCC(=O)C=C1CCC1C2C(=O)CC2(C)C1CCC2(O)C(=O)CO (centres undefined) [CORTISONE] | 6.81
74 | C[N+](C)(C)CCCC(=O)O [DEOXYCARNITINE] | 0.67
75 | O=C(O)C(O)c1ccc(O)c(O)c1 (centres undefined) [3-4 DIHYDROXYMANDELATE] | 0.91
76 | Cc1ccncc1 [4-Methylpyridine (4-Picoline)] | 0.87
77 | C=CC1=C(C)C(C=c2[nH]c(=Cc3[nH]c(C=C4NC(=O)C(C)=C4C=C)c(C)c3CCC(=O)O)c(CCC(=O)O)c2C)=NC1=O [BILIVERDIN] | 7.99
78 | Nc1ccn(C2OC(CO)C3OP(=O)(O)OC32)c(=O)n1 (centres undefined) [CYTIDINE 2'-3'-CYCLIC PHOSPHATE] | 0.7
79 | NC(=O)NC1NC(=O)NC1=O (centres undefined) [ALLANTOIN] | 0.67
80 | CC1C(=O)Nc2ccccc21 (centres undefined) [3-METHYL-2-OXINDOLE] | 6.25
81 | C[N+](C)(C)CCOP(=O)(O)OP(=O)([O-])OCC1OC(n2ccc(N)nc2=O)C(O)C1O (centres undefined) [CITICOLINE] | 0.64
82 | Nc1nc2c(ncn2C2OC3COP(=O)(O)OC3C2O)c(=O)[nH]1 (centres undefined) [CYCLIC GMP] | 1.29
83 | NCCCCC(=O)O [5-AMINOPENTANOATE] | 0.71
84 | Cn1cnc2nc(N)[nH]c(=O)c21 [7-methylguanine] | 0.82
85 | O=C/C=C/c1ccccc1 [Trans-Cinnamaldehyde] | 7.27
86 | NCC(O)c1ccccc1 (centres undefined) [PHENYLETHANOLAMINE] | 2.24
87 | CC(O)C(O)C1=Nc2c(nc(N)[nH]c2=O)NC1 [7-8-Dihydro-L-biopterin] | 0.82
88 | NCCCNCCCN [NORSPERMIDINE] | 0.49
89 | CN(CC(=O)O)C(=N)N [CREATINE] | 0.66
90 | CC(CCC(=O)O)C1CCC2C3C(O)CC4CC(O)CCC4(C)C3CC(O)C12C (centres undefined) [CHOLATE] | 8.17
91 | CN(C)c1ccc(N)cc1 [N-N-DIMETHYL-1-4-PHENYLENEDIAMINE] | 0.83
92 | O=c1ccc2ccccc2o1 [Coumarin] | 6.42
93 | O=C(OC1Cc2c(O)cc(O)cc2OC1c1cc(O)c(O)c(O)c1)c1cc(O)c(O)c(O)c1 (single isomer, unassigned; (-)) [(-)-Epigallocatechin gallate] | 5.05
94 | O=C(O)c1cncc(O)c1 [5-Hydroxynicotinic acid] | 0.83
